The target in test [1] is T1, Trace amine-associated receptor 1 (Homo sapiens) (UniProt Q96RJ0).
T1 sequence (whole entry): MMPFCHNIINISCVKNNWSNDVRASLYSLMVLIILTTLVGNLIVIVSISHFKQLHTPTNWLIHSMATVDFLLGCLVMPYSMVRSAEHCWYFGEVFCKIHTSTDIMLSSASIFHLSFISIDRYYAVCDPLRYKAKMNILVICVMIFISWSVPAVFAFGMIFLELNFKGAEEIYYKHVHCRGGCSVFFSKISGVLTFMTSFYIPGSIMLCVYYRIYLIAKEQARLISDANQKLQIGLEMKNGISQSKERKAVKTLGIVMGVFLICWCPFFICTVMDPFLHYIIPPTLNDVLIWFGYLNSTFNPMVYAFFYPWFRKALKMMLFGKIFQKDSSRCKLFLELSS
Kind of test: Agonist activity at human TAAR1 expressed in HEK293 cells assessed as increase in cAMP release after 30 mins by BRET assay. The format is functional, cell-based.

For test [2], the target named is T2, Trace amine-associated receptor 5 (Mus musculus) (UniProt Q5QD14).
T2 sequence (whole entry): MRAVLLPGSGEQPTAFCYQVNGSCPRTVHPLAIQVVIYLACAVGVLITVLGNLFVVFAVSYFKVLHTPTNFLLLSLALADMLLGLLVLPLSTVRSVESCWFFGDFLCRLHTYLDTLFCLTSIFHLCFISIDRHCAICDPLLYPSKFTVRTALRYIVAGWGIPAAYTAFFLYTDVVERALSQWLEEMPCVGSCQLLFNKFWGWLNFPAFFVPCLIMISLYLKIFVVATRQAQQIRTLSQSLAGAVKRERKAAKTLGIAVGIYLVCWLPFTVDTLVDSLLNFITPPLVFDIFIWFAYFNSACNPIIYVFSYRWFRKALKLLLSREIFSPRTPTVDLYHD
Kind of test: (§1) Agonist activity at mouse TAAR5 expressed in HEK293 cells assessed as increase in cAMP release after 30 mins by BRET assay relative to control. The format is functional, cell-based.

Test [3] has as its target T3, Trace amine-associated receptor 5 (Mus musculus, UniProt Q5QD14).
T3 sequence (Q5QD14 whole entry): T2 sequence (whole entry)
Kind of test: Antagonist activity at mouse TAAR5 expressed in HEK293 cells assessed as inhibition of agonist induced cAMP release preincubated for 5 mins followed by addition of agonist by BRET assay. The format is functional, cell-based.

In test [4] the target is Trace amine-associated receptor 1 (Mus musculus, UniProt Q923Y8). The test is described as follows: Antagonist activity at mouse TAAR1 expressed in HEK293 cells assessed as inhibition of agonist induced cAMP release preincubated for 5 mins followed by addition of agonist by BRET assay. Type of test: functional, cell-based.
A further test is filed under the species Mus musculus. The test is described as follows: Selectivity ratio of IC50 for mouse TAAR1 to IC50 for mouse TAAR5.
In test [5] the target is T3, Trace amine-associated receptor 5. The test is described as §1. The format is functional, cell-based.

Consider four molecules from ChEMBL document CHEMBL3784953, “A homology modelling-driven study leading to the discovery of the first mouse trace amine-associated receptor 5 (TAAR5) antagonists” (Medchemcomm, 2016).

Chain of Trace amine-associated receptor 1 (Q923Y8 whole entry, the tested form may be a part): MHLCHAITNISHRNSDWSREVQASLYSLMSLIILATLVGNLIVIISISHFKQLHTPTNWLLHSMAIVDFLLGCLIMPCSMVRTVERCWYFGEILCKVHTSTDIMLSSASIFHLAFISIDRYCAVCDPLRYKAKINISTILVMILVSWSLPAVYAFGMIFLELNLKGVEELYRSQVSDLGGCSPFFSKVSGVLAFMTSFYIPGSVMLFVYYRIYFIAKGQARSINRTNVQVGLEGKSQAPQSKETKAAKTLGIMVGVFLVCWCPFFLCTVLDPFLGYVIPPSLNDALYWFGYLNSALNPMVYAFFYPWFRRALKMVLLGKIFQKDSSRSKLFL

For `NCCc1ccc(Oc2ccc(O)cc2)c(I)c1`, the results for the fold change (FC) in test [1] and in test [2] were 16 and 2, respectively.

On to `COc1ccccc1N1CCN(CC2CCC(c3ccccc3)(c3ccccc3)O2)CC1` (stereo not drawn), for which the values for the IC50 in test [3] and in test [4] were 4.8 µM and greater than 100 µM, respectively. Also, the Ratio IC50 in the test filed under Mus musculus was greater than 20.

Turning to `COc1ccccc1OCCNCC1CCC(c2ccccc2)(c2ccccc2)O1` (stereo not drawn), the IC50 in test [3] is 29 µM; in test [4], greater than 100 µM.

On to `CN(C)C` [TRIMETHYLAMMONIUM], for which the EC50 in test [5] came out at 2.1 µM.
